{"source": "patent US20150051191A1", "about": "“TREATMENT OF ALCOHOLISM USING IBUDILAST” (MEDICINOVA, INC., priority 2013, published 2015)", "key": {"[1]": {"conditions": "in vivo; cited from earlier work"}, "[2]": {"tested_on": "alcohol-preferring (P) rats", "experiment": "voluntary ethanol consumption in alcohol-preferring (P) rats", "type": "in vivo, rat", "conditions": "for ethanol drinking relative to controls: Relapse Test phase, p<0.05", "protocol": "(§1) The ability of ibudilast (MN-166) to decrease voluntary ethanol consumption, under blind testing conditions, in selectively-bred alcohol-preferring (P) and high-alcohol-drinking (HAD1) rats and in a mouse model of ethanol dependence was examined.\n(§2) To perform the study, adult male P and HAD1 rats were randomly assigned to receive one of the following four doses of ibudilast—0 mg/Kg, 3 mg/Kg, 6 mg/Kg, or 9 mg/Kg with eight rats assigned to each dose. Each dosing group was balanced to average a 2 h/day ethanol (15% v/v) intake. Water was concurrently available to the rats and Mazola corn oil was used as the vehicle.\n(§3) The study was divided into four test phases. In the maintenance test phase rats in the treatment group were injected ibudilast subcutaneously (2 mL/kg s.c.), using standard solutions that deliver 3 mg/Kg, 6 mg/Kg or 9 mg/Kg of ibudilast, 60 min before each ethanol test session and the same dose of ibudilast was administered subcutaneously to the rats 8 hours later. Rats in the control group, however, are administered 2 mL/Kg Mazola corn oil subcutaneously. This protocol was carried out for 4 consecutive days. Following the maintenance test phase, is a two week no drug recovery phase during which rats are permitted access to ethanol and the amount of ethanol consumed by the rats was measured.\n(§4) The recovery phase is followed by a two week forced ethanol abstinence phase. Following forced abstinence, the effects of ibudilast on ethanol drinking were examined by re-introducing ethanol to rats for a period of 5 consecutive days (i.e., the Relapse Test phase). Each animal received the same dose of ibudilast during maintenance and relapse test phases."}, "[3]": {"tested_on": "high-alcohol-drinking (HAD1) rats", "experiment": "voluntary ethanol consumption in high-alcohol-drinking (HAD1) rats", "type": "in vivo, rat", "protocol": "as §1, §2, §3, §4"}, "C57BL/6J mice": {"tested_on": "C57BL/6J mice", "experiment": "mouse model of ethanol dependence, chronic intermittent ethanol (CIE) exposure", "type": "in vivo", "conditions": "for ethanol intake of alcohol dependent mice compared with control group counterparts / reduction of ethanol intake, alcohol dependent versus control mice: Test Cycle 9; for ethanol consumption relative to vehicle: Test Cycle 8", "protocol": "Briefly, mice were divided into test (ethanol dependent) and control (non-ethanol dependent) groups. Mice in the former group were exposed to chronic intermittent ethanol (CIE) vapor (16 hr/day×4 days), and then forced to abstain from alcohol for 72 hours. Mice were then permitted access to ethanol for 2 h/day for a 5-day test period. This pattern of weekly CIE exposures followed by 5-day test periods was repeated for 9 cycles. Mice in the control group were treated in the same manner, except these animals were exposed to air rather than ethanol vapors. Mice from both groups were further divided into four sub-groups with animals receiving 0 mg/Kg, 3 mg/Kg, 6 mg/Kg or 12 mg/Kg dose of ibudilast. In a separate study, adult male C57BL/6J mice were used to evaluate ibudilast as a therapeutic for the treatment of alcohol dependence. Two groups of mice were used for the study. Mice in the first group were trained to drink ethanol using a 2 h/day free-choice (15% v/v ethanol) drinking procedure (ethanol dependent (EtOH) mice), while mice in the second group were provided water and served a control (ethanol nondependent (CTL)) mice. Both the ethanol dependent and ethanol non-dependent groups had equal number of mice (N=37-38/group). Mice in the alcohol dependent group were then exposed to chronic intermittent ethanol (CIE) vapors for 16 hr/day over four days. After a 72 hours forced abstinence period, the ethanol dependent mice were again permitted access to ethanol for 2 hours each day over a 5 consecutive test days. This pattern of chronic intermittent ethanol vapor exposure for four consecutive days followed by forced abstinence and a five day ethanol access test period was repeated for 9 cycles. […] Both control and ethanol dependent mice received subcutaneous (s.c.) injections of the vehicle at 9 hours and 1 hour prior to the start of daily drinking sessions during Test Cycles 4, 5 and 6 to acclimate the animals to handling and administration of injections. At the end of test cycle 6, mice in the ethanol dependent group and the control group were separated into four sub-groups with animals receiving one of four doses of ibudilast—0 mg/Kg, 3 mg/Kg, 6 mg/Kg or 12 mg/Kg during Test Cycles 7 and 8. Each sub-group contained 9-10 mice (N=9-10/group). The dose of ibudilast was increased during Test Cycle 9 with ethanol dependent and control mice receiving one of the following four doses of ibudilast—0 mg/Kg, 6 mg/Kg, 12 mg/Kg, or 18 mg/Kg. Thus, mice previously receiving a dose of 3 mg were administered ibudilast at a dose of 18 mg/Kg during Test Cycle 9."}, "[4]": {"conditions": "4-day maintenance test-phase, each dose (3, 6, 9 mg/Kg), p<=0.001"}, "[5]": {"conditions": "5-day Relapse Test phase after two week forced abstinence"}, "[6]": {"conditions": "especially at the 9 mg/Kg dose, effect diminished over the 5-day test phase"}, "[7]": {"conditions": "maintenance test phase, 4 days, ibudilast s.c. 60 min before session and 8 hours later, 2 h/day ethanol 15% v/v"}, "[8]": {"conditions": "relapse test phase, data not shown"}}, "data": [{"smiles": "OCCOCCN1CCN(C2=Nc3ccccc3Sc3ccccc32)CC1", "note": "[quetiapine]", "values": [{"measurement": "selective reduction of ethanol drinking", "setting": "[1]", "value": "do not selectively reduce ethanol drinking"}]}, {"smiles": "CC[C@@H](C(N)=O)N1CCCC1=O", "note": "[levatiracetam]", "values": [{"measurement": "selective reduction of ethanol drinking", "setting": "[1]", "value": "do not selectively reduce ethanol drinking"}]}, {"smiles": "CC(C)C(=O)c1c(C(C)C)nn2ccccc12", "note": "[ibudilast, Ibudilast]", "values": [{"measurement": "ethanol intake relative to vehicle-injected controls", "setting": "[2]; [4]", "value": "reduced ethanol intake"}, {"measurement": "reduction of ethanol intake", "setting": "[2]; [5]", "value": "about 50%"}, {"measurement": "ethanol drinking relative to controls", "setting": "[2]; 6 mg/Kg", "value": "significantly reducing ethanol drinking"}, {"measurement": "ethanol drinking relative to controls", "setting": "[2]; 9 mg/Kg", "value": "significantly reducing ethanol drinking"}, {"measurement": "24-hour water intake", "setting": "[2]; especially at the 9 mg/Kg dose", "value": "not water intake"}, {"measurement": "24-hour food intake", "setting": "[2]; [6]", "value": "transitory reductions in 24-hour food intake"}, {"measurement": "reduction of ethanol intake", "setting": "[2]; [7]", "value": "approximately 50%"}, {"measurement": "Dose x Day interaction of reduced ethanol intake", "setting": "[2]; [8]", "value": "most robust on the first day"}, {"measurement": "ethanol intake relative to vehicle-injected controls", "setting": "[3]; [4]", "value": "reduced ethanol intake"}, {"measurement": "reduction of ethanol intake", "setting": "[3]; [5]", "value": "about 50%"}, {"measurement": "ethanol intake compared to controls", "setting": "[3]; Relapse Test phase, each test dose, p<0.05", "value": "reduce ethanol intake compared to controls"}, {"measurement": "24-hour water intake", "setting": "[3]; especially at the 9 mg/Kg dose", "value": "not water intake"}, {"measurement": "24-hour food intake", "setting": "[3]; [6]", "value": "transitory reductions in 24-hour food intake"}, {"measurement": "reduction of ethanol intake", "setting": "[3]; [7]", "value": "approximately 50%"}, {"measurement": "Dose x Day interaction of reduced ethanol intake", "setting": "[3]; [8]", "value": "most robust on the first day"}, {"measurement": "ethanol intake of alcohol dependent mice compared with control group counterparts", "setting": "C57BL/6J mice; 6 mg ibudilast, p<0.05", "value": "consumed significantly more ethanol"}, {"measurement": "ethanol intake of alcohol dependent mice compared with control group counterparts", "setting": "C57BL/6J mice; 12 mg/Kg", "value": "no significant difference in ethanol intake"}, {"measurement": "reduction of ethanol intake, alcohol dependent versus control mice", "setting": "C57BL/6J mice; 12 mg/Kg", "value": "more effective at reducing ethanol intake in alcohol dependent mice than control mice"}, {"measurement": "ethanol intake of alcohol dependent mice compared with control group counterparts", "setting": "C57BL/6J mice; 18 mg/Kg", "value": "no significant difference in ethanol intake"}, {"measurement": "reduction of ethanol intake, alcohol dependent versus control mice", "setting": "C57BL/6J mice; 18 mg/Kg", "value": "more effective at reducing ethanol intake in alcohol dependent mice than control mice"}, {"measurement": "ethanol intake", "setting": "C57BL/6J mice; alcohol dependent mice, 12 mg/Kg s.c., Test Cycle 7 (implied, FIG. 2)", "value": "reduced ethanol in alcohol dependent mice"}, {"measurement": "ethanol consumption relative to vehicle", "setting": "C57BL/6J mice; alcohol dependent mice, 12 mg/Kg, p<0.05", "value": "reduced ethanol consumption to a greater extent"}, {"measurement": "ethanol intake of test (ethanol dependent) mice relative to control group levels", "setting": "C57BL/6J mice; at the higher doses", "value": "below those for mice in the control group"}, {"measurement": "ethanol consumption relative to vehicle", "setting": "C57BL/6J mice; control (CTL) mice, 12 mg/Kg, p<0.05", "value": "reduced ethanol consumption to a greater extent"}]}]}
